From patent US12673936B2, “Isoindolinone compounds, and uses thereof” (HANGZHOU GLUBIO PHARMACEUTICAL CO., LTD., priority 2021, dated 2026)

Columns and labels:
HiBiT tagged CK1α = HiBiT tagged CK1α (Homo sapiens, UniProt P48729+Q96SW2); assay: CK1α degradation assay (HiBiT assay); type: cell-based; conditions: 20 hours; for Dmax: HT-1080, HT-1080 cells; for Dmax / HiBiT CK1α: Dmax: maximum CK1α degradation; for DC50 / HiBiT CK1α: Dmax: HT-1080 cells; for DC50: concentration at 50% CK1α degradation
HiBiT tagged CK1α, sequence (P48729 whole entry): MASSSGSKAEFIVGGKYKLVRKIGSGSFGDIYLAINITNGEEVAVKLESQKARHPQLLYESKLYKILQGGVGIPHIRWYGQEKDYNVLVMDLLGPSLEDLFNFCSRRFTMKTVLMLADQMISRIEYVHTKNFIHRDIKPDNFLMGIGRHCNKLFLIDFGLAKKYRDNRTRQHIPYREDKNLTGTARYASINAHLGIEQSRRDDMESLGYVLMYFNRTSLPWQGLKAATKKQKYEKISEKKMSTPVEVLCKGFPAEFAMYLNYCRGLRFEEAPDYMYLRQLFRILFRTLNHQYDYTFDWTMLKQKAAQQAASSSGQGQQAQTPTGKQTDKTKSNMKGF
HiBiT tagged CK1α, sequence (Q96SW2 whole entry): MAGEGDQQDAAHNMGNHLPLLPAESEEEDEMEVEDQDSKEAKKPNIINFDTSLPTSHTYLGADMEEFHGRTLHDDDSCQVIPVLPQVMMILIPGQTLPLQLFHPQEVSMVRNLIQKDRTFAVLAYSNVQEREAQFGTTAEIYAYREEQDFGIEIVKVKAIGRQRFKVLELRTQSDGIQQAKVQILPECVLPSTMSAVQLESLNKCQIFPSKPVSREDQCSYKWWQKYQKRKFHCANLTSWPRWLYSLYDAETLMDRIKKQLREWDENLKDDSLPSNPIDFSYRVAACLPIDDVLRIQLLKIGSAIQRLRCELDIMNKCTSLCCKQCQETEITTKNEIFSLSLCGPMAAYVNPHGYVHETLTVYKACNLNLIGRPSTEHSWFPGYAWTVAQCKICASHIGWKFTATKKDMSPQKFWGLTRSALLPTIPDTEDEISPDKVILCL
HiBiT tagged CK1α, sequence (Q16531 whole entry partner): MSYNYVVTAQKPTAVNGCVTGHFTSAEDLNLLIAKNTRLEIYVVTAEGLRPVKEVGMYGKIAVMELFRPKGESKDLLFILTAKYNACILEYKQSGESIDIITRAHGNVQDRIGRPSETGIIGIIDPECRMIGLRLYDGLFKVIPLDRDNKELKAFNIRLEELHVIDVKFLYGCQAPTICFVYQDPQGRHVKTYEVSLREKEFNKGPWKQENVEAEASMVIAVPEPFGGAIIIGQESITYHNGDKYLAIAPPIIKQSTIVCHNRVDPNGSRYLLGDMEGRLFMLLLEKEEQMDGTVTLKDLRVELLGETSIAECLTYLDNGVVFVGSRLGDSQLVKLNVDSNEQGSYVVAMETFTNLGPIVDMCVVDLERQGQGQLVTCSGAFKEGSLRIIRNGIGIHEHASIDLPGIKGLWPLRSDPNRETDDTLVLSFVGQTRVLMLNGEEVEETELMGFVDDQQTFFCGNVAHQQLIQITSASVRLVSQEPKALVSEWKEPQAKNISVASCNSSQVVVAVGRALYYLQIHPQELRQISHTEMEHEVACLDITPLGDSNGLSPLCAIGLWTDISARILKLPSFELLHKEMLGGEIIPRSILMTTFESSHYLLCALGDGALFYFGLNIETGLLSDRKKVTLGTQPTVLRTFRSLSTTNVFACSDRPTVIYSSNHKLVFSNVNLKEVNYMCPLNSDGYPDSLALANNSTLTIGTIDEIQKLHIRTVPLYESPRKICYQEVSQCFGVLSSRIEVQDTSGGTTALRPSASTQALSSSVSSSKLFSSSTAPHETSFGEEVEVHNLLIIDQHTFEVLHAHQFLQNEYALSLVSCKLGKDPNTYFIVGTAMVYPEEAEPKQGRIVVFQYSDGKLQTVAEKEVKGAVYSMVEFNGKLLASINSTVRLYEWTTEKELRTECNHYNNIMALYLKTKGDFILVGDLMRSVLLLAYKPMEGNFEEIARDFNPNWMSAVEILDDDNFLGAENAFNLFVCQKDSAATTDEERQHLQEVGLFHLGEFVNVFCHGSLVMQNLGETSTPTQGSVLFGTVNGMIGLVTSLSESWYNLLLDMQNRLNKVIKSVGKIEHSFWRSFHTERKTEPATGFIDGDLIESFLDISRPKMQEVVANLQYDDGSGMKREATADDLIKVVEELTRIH
Experimental: (§1) CK1α and GSPT1 Degradation Assay (HiBiT Assay) The following is an example of an assay that can be used to determine the dose-dependent CK1α and GSPT1 degradation activities of test compounds in a human cell line such as HT-1080 ([…]). HT-1080 cells stably overexpressing wild-type CRBN, GSPT1A(1-138)/G575N mutant and HiBiT tagged CK1α or GSPT1 were seeded into 384-well plates (Cat #3764, Corning) pre-spotted with DMSO or test compounds. Increasing concentrations of test compounds (ranging from 3.162×10^-4 μM to 10 μM at a 3.16-fold increment) or DMSO were dispensed into an empty 384-well plate using an Echo Acoustic Liquid Handler (Beckman Coulter). About 10,000 cells in complete DMEM cell culture media were seeded per well. […] Luminescence was then measured with an EnVision plate reader (PerkinElmer) or a PHERAstar plate reader (BMG Labtech). All CK1α or GSPT1 degradation curves were processed using Collaborative Drug Discovery Vault softwares (Burlingame, CA., www.collaborativedrug.com). CK1α or GSPT1 levels in compound-treated wells were normalized to that of DMSO control and expressed as Percent of Control (PoC, y). […]

HiBiT tagged GSPT1 = HiBiT tagged GSPT1 (Homo sapiens, UniProt P15170+Q96SW2); assay: GSPT1 degradation assay (HiBiT assay); type: cell-based; conditions: 20 hours, maximum GSPT1 degradation; for Dmax: HT-1080, HT-1080 cells; for HiBiT GSPT1: Dmax: HT-1080 cells
HiBiT tagged GSPT1, sequence (P15170 whole entry): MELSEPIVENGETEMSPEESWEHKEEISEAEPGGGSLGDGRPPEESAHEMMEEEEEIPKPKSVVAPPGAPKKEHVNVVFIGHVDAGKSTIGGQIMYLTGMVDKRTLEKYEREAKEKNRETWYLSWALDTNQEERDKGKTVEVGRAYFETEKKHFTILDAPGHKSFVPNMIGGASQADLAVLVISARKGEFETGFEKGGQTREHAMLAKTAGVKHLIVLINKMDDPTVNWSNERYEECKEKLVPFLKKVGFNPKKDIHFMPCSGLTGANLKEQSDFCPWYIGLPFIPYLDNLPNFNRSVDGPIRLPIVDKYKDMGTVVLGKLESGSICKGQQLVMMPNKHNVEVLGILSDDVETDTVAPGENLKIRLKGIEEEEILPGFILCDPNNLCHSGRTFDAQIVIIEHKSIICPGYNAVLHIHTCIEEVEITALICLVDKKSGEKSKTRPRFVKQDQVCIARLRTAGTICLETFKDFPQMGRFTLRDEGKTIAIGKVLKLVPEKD
HiBiT tagged GSPT1, sequence (Q96SW2 whole entry): as the sequence (Q96SW2 whole entry) above
HiBiT tagged GSPT1, sequence (Q16531 whole entry partner): as the sequence (Q16531 whole entry partner) above
Experimental: as §1

Row | Compound | Dmax (HiBiT tagged CK1α) | DC50 (HiBiT tagged CK1α) | Dmax (HiBiT tagged GSPT1) | HiBiT CK1α: Dmax (HiBiT tagged CK1α) | HiBiT GSPT1: Dmax (HiBiT tagged GSPT1)
1 | O=C1CCC(N2Cc3cc(C(=O)NC(c4ccc(F)cc4F)C4CC4)ccc3C2=O)C(=O)N1 (centres unmarked) [Compound 1, N-(cyclopropyl(2,4-difluorophenyl)methyl)-2-(2,6-dioxopiperidin-3-yl)-1-oxoisoindoline-5-carboxamide] | 66.2% | 221 nM | 37% |  | 
2 | O=C1CCC(N2Cc3cc(C(=O)N[C@H](c4ncccc4F)C4(F)CCC4)ccc3C2=O)C(=O)N1 (stereo in doubt) [Compound 88, 2-(2,6-dioxopiperidin-3-yl)-N-((*R)-(1-fluorocyclobutyl)(3-fluoropyridin-2-yl)methyl)-1-oxoisoindoline-5-carboxamide] | 55.4% | 394 nM | 14.9% |  | 
3 | O=C1CCC(N2Cc3cc(C(=O)N[C@H](c4ncc(F)cc4Cl)C4CC4)ccc3C2=O)C(=O)N1 (stereo in doubt) [Compound 71, N-((*S)-(3-chloro-5-fluoropyridin-2-yl)(cyclopropyl)methyl)-2-(2,6-dioxopiperidin-3-yl)-1-oxoisoindoline-5-carboxamide] | 61.7% | 455 nM | 19.1% |  | 
4 | O=C1CCC(N2Cc3cc(C(=O)N[C@H](c4c(F)cccc4F)C4CC4)ccc3C2=O)C(=O)N1 (stereo in doubt) [Compound 17, N-((*S)-cyclopropyl(2,6-difluorophenyl)methyl)-2-(2,6-dioxopiperidin-3-yl)-1-oxoisoindoline-5-carboxamide] | 68.1% | 123 nM | 49.3% |  | 
5 | O=C1CCC(N2Cc3cc(C(=O)N[C@H](c4cccc(F)c4)C4CC4)ccc3C2=O)C(=O)N1 (stereo in doubt) [Compound 26, N-((*S)-cyclopropyl(3-fluorophenyl)methyl)-2-(2,6-dioxopiperidin-3-yl)-1-oxoisoindoline-5-carboxamide] | 58.4% | 417 nM | 30.7% |  | 
6 | O=C1CCC(N2Cc3cc(C(=O)NC(c4ccc(F)c(F)c4)C4CCC4)ccc3C2=O)C(=O)N1 (single isomer, unassigned) [Compound 47, N-((*R)-cyclobutyl(3,4-difluorophenyl)methyl)-2-((*R)-2,6-dioxopiperidin-3-yl)-1-oxoisoindoline-5-carboxamide] | 56.1% | 2960 nM | 29.7% |  | 
7 | O=C1CCC(N2Cc3cc(C(=O)N[C@@H](c4ccc(F)cc4Cl)C4CCC4)ccc3C2=O)C(=O)N1 (stereo in doubt) [Compound 72, N-((*R)-(2-chloro-4-fluorophenyl)(cyclobutyl)methyl)-2-(2,6-dioxopiperidin-3-yl)-1-oxoisoindoline-5-carboxamide] | 65.5% | 132 nM | 45.2% |  | 
8 | O=C1CCC(N2Cc3cc(C(=O)N[C@H](c4ccc(F)cc4Cl)C4CC4)ccc3C2=O)C(=O)N1 (stereo in doubt) [Compound 13, N-((*S)-(2-chloro-4-fluorophenyl)(cyclopropyl)-yl)methyl)-2-(2,6-dioxopiperidin-3-yl)-1-oxoisoindoline-5-carboxamide] | 65.9% | 293 nM | 37% |  | 
9 | O=C1CCC(N2Cc3cc(C(=O)NC(c4ccc(F)cc4Cl)C4CCC4)ccc3C2=O)C(=O)N1 (centres unmarked) [Compound 19, N-((2-chloro-4-fluorophenyl)(cyclobutyl)methyl)-2-(2,6-dioxopiperidin-3-yl)-1-oxoisoindoline-5-carboxamide] | 69.6% | 65.9 nM | 43% |  | 
10 | O=C1CCC(N2Cc3cc(C(=O)N[C@H](c4ncc(Cl)cc4F)C4CCC4)ccc3C2=O)C(=O)N1 (stereo in doubt) [Compound 80, N-((*S)-(5-chloro-3-fluoropyridin-2-yl)(cyclobutyl)methyl)-2-(2,6-dioxopiperidin-3-yl)-1-oxoisoindoline-5-carboxamide] | 61.1% | 652 nM | 14.2% |  | 
11 | O=C1CCC(N2Cc3cc(C(=O)N[C@H](c4c(F)cccc4Cl)C4CCC4)ccc3C2=O)C(=O)N1 (stereo in doubt) [Compound 69, N-((*S)-(2-chloro-6-fluorophenyl)(cyclobutyl)methyl)-2-(2,6-dioxopiperidin-3-yl)-1-oxoisoindoline-5-carboxamide] |  | 62.7 nM |  | 74% | 26%
12 | O=C1CC[C@@H](N2Cc3cc(C(=O)NC(c4ccc(F)cc4)C4CCCC4)ccc3C2=O)C(=O)N1 (single isomer, unassigned) [Compound 62, N-((*S)-cyclopentyl(4-fluorophenyl)methyl)-2-((R)-2,6-dioxopiperidin-3-yl)-1-oxoisoindoline-5-carboamide] | 69.8% | 77.7 nM | 27.5% |  | 
13 | Cc1ccccc1[C@@H](NC(=O)c1ccc2c(c1)CN(C1CCC(=O)NC1=O)C2=O)C1CC1 (stereo in doubt) [Compound 39, N-((*S)-cyclopropyl(o-tolyl)methyl)-2-(2,6-dioxopiperidin-3-yl)-1-oxoisoindoline-5-carboxamide] | 61% | 363 nM | 32.5% |  | 
14 | O=C1CC[C@@H](N2Cc3cc(C(=O)N[C@H](c4ccc(Cl)cc4F)C4CCC4)ccc3C2=O)C(=O)N1 (racemic) [Compound 54, N-((*S)-(4-chloro-2-fluorophenyl)(cyclobutyl)methyl)-2-((*R)-2,6-dioxopiperidin-3-yl)-1-oxoisoindoline-5-carboxamide] | 56.5% | 1110 nM |  |  | 47.9%
15 | O=C1CCC(N2Cc3cc(C(=O)NC(c4cccc(F)c4Cl)C4CC4)ccc3C2=O)C(=O)N1 (centres unmarked) [Compound 43, N-((2-chloro-3-fluorophenyl)(cyclopropyl)methyl)-2-(2,6-dioxopiperidin-3-yl)-1-oxoisoindoline-5-carboxamide] | 69.8% | 49.6 nM | 58.2% |  | 
16 | Cc1cccc([C@H](NC(=O)c2ccc3c(c2)CN(C2CCC(=O)NC2=O)C3=O)C2CC2)c1 (stereo in doubt) [Compound 29, N-((*R)-cyclopropyl(m-tolyl)methyl)-2-(2,6-dioxopiperidin-3-yl)-1-oxoisoindoline-5-carboxamide] | 58.8% | 553 nM | 22% |  | 
17 | O=C1CCC(N2Cc3cc(C(=O)N[C@H](c4ccccc4Cl)C4CC4)ccc3C2=O)C(=O)N1 (stereo in doubt) [Compound 12, N-((*S)-(2-chlorophenyl)(cyclopropyl)methyl)-2-(2,6-dioxopiperidin-3-yl)-1-oxoisoindoline-5-carboxamide] | 64.7% | 140 nM | 36.8% |  | 
18 | COc1cccc([C@@H](NC(=O)c2ccc3c(c2)CN(C2CCC(=O)NC2=O)C3=O)C2CC2)c1 (stereo in doubt) [Compound 32, N-((*S)-cyclopropyl(3-methoxyphenyl)methyl)-2-(2,6-dioxopiperidin-3-yl)-1-oxoisoindoline-5-carboxamide] | 59.3% | 198 nM | 36.3% |  | 
19 | O=C1CCC(N2Cc3cc(C(=O)NC(c4ccc(F)c(F)c4)C4CCC4)ccc3C2=O)C(=O)N1 (centres unmarked) [Compound 40, N-(cyclobutyl(3,4-difluorophenyl)methyl)-2-(2,6-dioxopiperidin-3-yl)-1-oxoisoindoline-5-carboxamide] | 57.5% | 416 nM | 30.6% |  | 
20 | O=C1CCC(N2Cc3cc(C(=O)N[C@@H](c4ccc(Cl)cc4)C4CC4)ccc3C2=O)C(=O)N1 (stereo in doubt) [Compound 2, N—((*R)-(4-chlorophenyl)(cyclopropyl)methyl)-2-(2,6-dioxopiperidin-3-yl)-1-oxoisoindoline-5-carboxamide] |  | 180 nM |  | 67% | 33.6%
21 | O=C1CCC(N2Cc3cc(C(=O)N[C@H](c4cccc(Cl)c4)C4CC4)ccc3C2=O)C(=O)N1 (stereo in doubt) [Compound 28, N-((*S)-(3-chlorophenyl)(cyclopropyl)methyl)-2-(2,6-dioxopiperidin-3-yl)-1-oxoisoindoline-5-carboxamide] | 60.1% | 1150 nM | 70.8% |  | 
22 | O=C1CC[C@@H](N2Cc3cc(C(=O)N[C@H](c4ccc(F)cc4Cl)C4CCC4)ccc3C2=O)C(=O)N1 (racemic) [Compound 50, N-((*S)-(2-chloro-4-fluorophenyl)(cyclobutyl)methyl)-2-((*R)-2,6-dioxopiperidin-3-yl)-1-oxoisoindoline-5-carboxamide] | 63.1% | 237 nM | 42.7% |  | 
23 | Cc1cccc([C@@H](NC(=O)c2ccc3c(c2)CN(C2CCC(=O)NC2=O)C3=O)C2CC2)c1 (stereo in doubt) [Compound 30, N-((*S)-cyclopropyl(m-tolyl)methyl)-2-(2,6-dioxopiperidin-3-yl)-1-oxoisoindoline-5-carboxamide] | 47.9% |  | 62.1% |  | 
24 | O=C1CCC(N2Cc3cc(C(=O)N[C@@H](c4cccc(Cl)c4)C4CC4)ccc3C2=O)C(=O)N1 (stereo in doubt) [Compound 27, N-((*R)-(3-chlorophenyl)(cyclopropyl)methyl)-2-(2,6-dioxopiperidin-3-yl)-1-oxoisoindoline-5-carboxamide] | 59.3% | 345 nM | 40.3% |  | 
